Results on 6 compounds are retold here after ChEMBL document CHEMBL2074508, “Functional characterization of the human multidrug transporter, ABCG2, expressed in insect cells” (Biochem Biophys Res Commun, 2001).

The structures appear in SMILES notation.

In assay [1] the target is T1, Broad substrate specificity ATP-binding cassette transporter ABCG2 (Homo sapiens, UniProt Q9UNQ0).
T1 sequence (Q9UNQ0 whole entry): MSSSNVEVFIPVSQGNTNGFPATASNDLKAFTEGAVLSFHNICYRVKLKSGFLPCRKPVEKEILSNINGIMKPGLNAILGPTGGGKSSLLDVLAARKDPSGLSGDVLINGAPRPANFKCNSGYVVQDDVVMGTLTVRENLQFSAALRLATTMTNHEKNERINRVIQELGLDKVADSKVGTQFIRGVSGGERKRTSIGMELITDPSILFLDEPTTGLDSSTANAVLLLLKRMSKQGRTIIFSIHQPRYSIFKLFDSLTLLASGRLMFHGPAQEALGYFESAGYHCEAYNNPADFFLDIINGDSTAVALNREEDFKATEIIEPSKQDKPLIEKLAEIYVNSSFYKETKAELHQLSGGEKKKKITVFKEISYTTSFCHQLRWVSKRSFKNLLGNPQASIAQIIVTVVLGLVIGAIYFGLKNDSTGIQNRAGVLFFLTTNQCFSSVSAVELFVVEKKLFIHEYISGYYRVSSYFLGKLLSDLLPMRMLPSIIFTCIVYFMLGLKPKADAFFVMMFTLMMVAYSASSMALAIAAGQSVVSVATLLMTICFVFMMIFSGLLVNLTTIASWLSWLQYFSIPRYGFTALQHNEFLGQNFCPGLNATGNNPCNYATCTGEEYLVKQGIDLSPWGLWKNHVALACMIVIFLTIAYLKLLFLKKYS
The assay is described as follows: TP_TRANSPORTER: ATP hydrolysis in membrane vesicle from BCRP-expressing Sf9 cells. It is filed as functional, cell membranes. The conditions noted are these: read-out: Kact.

Assay [2] addresses T1, Broad substrate specificity ATP-binding cassette transporter ABCG2. The assay is described as follows: TP_TRANSPORTER: inhibition of ATPase in membrane vesicle from BCRP-expressing Sf9 cells. Type of assay: functional, cell membranes.

Consider `COC(=O)c1ccccc1-c1c2ccc(=N)cc-2oc2cc(N)ccc12` [RHODAMINE123], for which the EC50 in assay [1] came out at 4.5 µM. Broadly, the Ki is a dissociation constant, usually derived from enzyme kinetics or from competition with a known ligand. `COc1ccc2c3c([nH]c2c1)[C@H](C=C(C)C)N1C(=O)[C@@H]2CCCN2C(=O)[C@@H]1C3` [FUMITREMORGIN] returned a Ki in assay [2] of 1.3 µM. This lies in the single-digit micromolar range. For `O=C1c2c(O)ccc(O)c2C(=O)c2c(NCCNCCO)ccc(NCCNCCO)c21` [MITOXANTRONE], the EC50 in assay [1] is 7 µM.

On to `COc1cccc2c1C(=O)c1c(O)c3c(c(O)c1C2=O)C[C@@](O)(C(=O)CO)C[C@@H]3O[C@H]1C[C@H](N)[C@H](O)[C@H](C)O1` [DOXORUBICIN], for which, in assay [1], the EC50 is 5 µM. On the same count and under the same terms, next, `COc1cc2nc(N3CCN(C(=O)c4ccco4)CC3)nc(N)c2cc1OC` [PRAZOSIN]: 1 µM; `COc1cccc2c1C(=O)c1c(O)c3c(c(O)c1C2=O)C[C@@](O)(C(C)=O)C[C@@H]3O[C@H]1C[C@H](N)[C@H](O)[C@H](C)O1` [DAUNORUBICIN]: 2.5 µM.
